{"source": "paper PMC5548886", "about": "(Cancer Medicine, 2017)", "key": {"BRAF V600E": {"test_system": "BRAF V600E", "conditions": "read-out: EC50 for BRAF V600E; preclinical data; cited from earlier work"}, "BIM": {"test_system": "BIM", "assay": "IHC of tumor biopsies, H-score change on-treatment vs pretreatment", "type": "in vivo, human", "protocol": "(§1) Pharmacodynamic markers were examined using peripheral blood samples, tumor and nevi biopsies (when available) and tumor imaging. BRAF mutation status was determined by Sanger sequencing. Pharmacodynamic markers analyzed, in available tumor/nevus samples obtained before treatment or archival tissue and during treatment on cycle 1, day 8 or day 15, including cytoplasmic p‐MEK, p‐ERK, BIM, c‐KIT, p‐AKT473, pS6 and PTEN, and nuclear p‐ERK, Ki‐67, PARP, cyclin D1, MITF, p27, and p53. Biomarker expression was determined by calculating the percentage of change in the H‐score (14) between on‐treatment and fresh/archival pretreatment specimens. Blood levels of VEGFR‐2 and were assessed before and at multiple time points while on treatment using enzyme‐linked immunosorbent assay (ELISA). […] Changes in standard uptake value (SUV) were determined by a blinded, independent central imaging review panel. Complete metabolic response (CMR) was complete resolution of tumor FDG‐PET uptake so SUV is the same as background. Partial metabolic response (PMR) decrease in sum of the tumor SUV of ≥25% from the baseline scan. Progressive metabolic disease (PMD) was defined as an increase in tumor SUV of ≥25% from the baseline scan, or the appearance of new FDG‐PET uptake in metastatic lesions. Stable metabolic disease (SMD) was defined as a change in tumor SUV between the PMR and PMD criteria."}, "pS6": {"test_system": "pS6", "assay": "IHC of tumor biopsies, H-score change on-treatment vs pretreatment", "type": "in vivo, human", "protocol": "as §1"}}}
{"smiles": "Cn1c(Nc2ccc(C(F)(F)F)cc2)nc2cc(Oc3ccnc(-c4ncc(C(F)(F)F)[nH]4)c3)ccc21", "note": "[RAF265]", "values": [{"measurement": "EC50", "setting": "BRAF V600E", "value": "[…]"}, {"measurement": "BIM % change vs pretreatment, Mean (SD)", "setting": "BIM; All patients, n 14", "value": "-17.00 (54.5) %"}, {"measurement": "BIM % change vs pretreatment, Median", "setting": "BIM; All patients, n 14", "value": 0, "unit": "%"}, {"measurement": "BIM % change vs pretreatment, Mean (SD)", "setting": "BIM; DL 5, n 1", "value": -100, "unit": "%"}, {"measurement": "BIM % change vs pretreatment, Median", "setting": "BIM; DL 5, n 1", "value": -100, "unit": "%"}, {"measurement": "BIM % change vs pretreatment, Mean (SD)", "setting": "BIM; DL 6, n 2", "value": "-7.1 (11.1) %"}, {"measurement": "BIM % change vs pretreatment, Median", "setting": "BIM; DL 6, n 2", "value": -7.1, "unit": "%"}, {"measurement": "BIM % change vs pretreatment, Mean (SD)", "setting": "BIM; DLs 1 - 4, n 8", "value": "-18 (65.1) %"}, {"measurement": "BIM % change vs pretreatment, Median", "setting": "BIM; DLs 1 - 4, n 8", "value": -14.3, "unit": "%"}, {"measurement": "BIM % change vs pretreatment, Mean (SD)", "setting": "BIM; DLs 7 and 7.1, n 3", "value": "+6.7 (5.8) %"}, {"measurement": "BIM % change vs pretreatment, Median", "setting": "BIM; DLs 7 and 7.1, n 3", "value": "+10%"}, {"measurement": "PS6 % change vs pretreatment, Mean (SD)", "setting": "pS6; All patients, n 19", "value": "+6.9 (70.8) %"}, {"measurement": "PS6 % change vs pretreatment, Median", "setting": "pS6; All patients, n 19", "value": -13, "unit": "%"}, {"measurement": "PS6 % change vs pretreatment, Mean (SD)", "setting": "pS6; DL 5, n 1", "value": "+255.6%"}, {"measurement": "PS6 % change vs pretreatment, Median", "setting": "pS6; DL 5, n 1", "value": "+255.6%"}, {"measurement": "pS6, median decrease", "setting": "pS6; DL 6", "value": 35.8, "unit": "%"}, {"measurement": "PS6 % change vs pretreatment, Mean (SD)", "setting": "pS6; DL 6, n 6", "value": "-20.6 (29.1) %"}, {"measurement": "PS6 % change vs pretreatment, Median", "setting": "pS6; DL 6, n 6", "value": -35.8, "unit": "%"}, {"measurement": "PS6 % change vs pretreatment, Mean (SD)", "setting": "pS6; DLs 1 - 4, n 8", "value": "-16.8 (20.9) %"}, {"measurement": "PS6 % change vs pretreatment, Median", "setting": "pS6; DLs 1 - 4, n 8", "value": -18.9, "unit": "%"}, {"measurement": "PS6 % change vs pretreatment, Mean (SD)", "setting": "pS6; DLs 7 and 7.1, n 4", "value": "33.4 (55.7) %"}, {"measurement": "PS6 % change vs pretreatment, Median", "setting": "pS6; DLs 7 and 7.1, n 4", "value": "+16.3%"}]}
